From patent US12091425B2 (AMGEN INC., priority 2016, dated 2024) come the findings set out here.

In general, IC50 refers to the point on the concentration scale where inhibition reaches its midpoint.

This experiment addresses T1, Mcl-1/Bim interaction, recombinant human Mcl-1 (171-327) (Homo sapiens, UniProt Q07820).
T1 construct: made in house
Put plainly: Cell free Mcl-1: Bim Affinity Assay (Mcl-1 HTRF). The experiment is classed as binding. The conditions noted are these: cell free Mcl-1:Bim TR-FRET, recombinant human Mcl-1 (171-327). Summed up:
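TR-FRET competition assay with biotinylated human Bim peptide (residues 51-76); reaction plates incubated overnight before reading. IC50 values came from duplicate data fitted to a four-parameter sigmoidal competition curve.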
(Time-resolved FRET reads energy transfer from a long-lived donor to a nearby acceptor.)

T1 sequence (Q07820 171-327): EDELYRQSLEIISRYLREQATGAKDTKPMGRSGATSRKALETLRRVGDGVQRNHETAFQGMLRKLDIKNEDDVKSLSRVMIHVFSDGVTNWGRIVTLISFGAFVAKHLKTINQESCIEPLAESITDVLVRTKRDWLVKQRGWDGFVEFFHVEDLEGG

Take `O=C1NS(=O)(=O)CCCCC(O)C(O)C2CCC2CN2CC3(CCCc4cc(Cl)ccc43)COc3ccc1cc32` (single isomer, unassigned) [Example 857, (1S,3′R,6′R,7′R,8′R)-6-chloro-7′,8′-dihydroxy-3,4-dihydro-2H,15′H-spiro[naphthalene-1,22′-[20]oxa[13]thia[1,14]diazatetracyclo[14.7.2.0^3,6.0^19,24]pentacosa [16,18,24]trien]-15′-one 13′,13′-dioxide or (1S,3′R,6′R,7′S,8′S)-6-chloro-7′,8′-dihydroxy-3,4-dihydro-2H,15′H-spiro[naphthalene-1,22′-[20]oxa[13]thia[1,14]diazatetracyclo[14.7.2.0^3,6.0^19,24]pentacosa [16,18,24]trien]-15′-one 13′,13′-dioxide]: the IC50 is 8.46 nM.

In the case of `CC1COCCC(O)C2CCC2CN2CC3(CCCc4cc(Cl)ccc43)COc3ccc(cc32)C(=O)NS1(=O)=O` (single isomer, unassigned) [Example 861], the IC50 was 1.59 nM.

On to `O=C1NS(=O)(=O)CCOC[C@@H](O)[C@@H]2CC[C@H]2CN2C[C@@]3(CCCc4cc(Cl)ccc43)COc3ccc1cc32` (single isomer, unassigned) [Example 866, (3R,6R,7S,21S)-6′-chloro-7-hydroxy-3′,4′-dihydro-2′H,14H-spiro[9,19-dioxa-12-thia-1,13-diazatetracyclo[13.7.2.0^3,6.0^18,23]tetracosa-15,17,23-triene-21,1′-naphthalen]-14-one 12,12-dioxide or (3R,6R,7R,21S)-6′-chloro-7-hydroxy-3′,4′-dihydro-2′H,14H-spiro[9,19-dioxa-12-thia-1,13-diazatetracyclo[13.7.2.0^3,6.0^18,23]tetracosa-15,17,23-triene-21,1′-naphthalen]-14-one 12,12-dioxide], for which the IC50 amounted to 9.53 nM.

Take `O=C1NS(=O)(=O)CCCC[C@H](O)C[C@@H]2CC[C@H]2CN2C[C@@]3(CCCc4cc(Cl)ccc43)COc3ccc1cc32` (single isomer, unassigned) [Example 867, (1S,3′R,6′S,8′S)-6-chloro-8′-hydroxy-3,4-dihydro-2H,15′H-spiro[naphthalene-1,22′-[20]oxa[13]thia[1,14]diazatetracyclo[14.7.2.0^3,6.0^19,24]pentacosa[16,18,24]trien]-15′-one 13′,13′-dioxide or (1S,3′R,6′S,8′R)-6-chloro-8′-hydroxy-3,4-dihydro-2H,15′H-spiro[naphthalene-1,22′-[20]oxa[13]thia[1,14]diazatetracyclo[14.7.2.0^3,6.0^19,24]pentacosa[16,18,24]trien]-15′-one 13′,13′-dioxide]: the 50% inhibitory concentration (IC50) is 6.81 nM.

For the compound `O=C1NS(=O)(=O)CCCOC[C@H](O)[C@@H]2CC[C@H]2CN2C[C@@]3(CCCc4cc(Cl)ccc43)COc3ccc1cc32` (single isomer, unassigned) [Example 870, (3R,6R,7R,22S)-6′-chloro-7-hydroxy-3′,4′-dihydro-2′H,15H-spiro[9,20-dioxa-13-thia-1,14-diazatetracyclo[14.7.2.0^3,6.0^19,24]pentacosa-16,18,24-triene-22,1′-naphthalen]-15-one 13,13-dioxide or (3R,6R,7S,22S)-6′-chloro-7-hydroxy-3′,4′-dihydro-2′H,15H-spiro[9,20-dioxa-13-thia-1,14-diazatetra-cyclo[14.7.2.0^3,6.0^19,24]pentacosa-16,18,24-triene-22,1′-naphthalen]-15-one 13,13-dioxide], the IC50 was 8.26 nM.

`C[C@@H]1C[C@@H]2C[C@@H](O1)[C@@H]1CC[C@H]1CN1C[C@@]3(CCCc4cc(Cl)ccc43)COc3ccc(cc31)C(=O)NS(=O)(=O)CCO2` (single isomer, unassigned) [Example 876]: the IC50 was 18.3 nM.

`C=C1[C@@H](O)[C@H](O)CC[C@@H](CC)S(=O)(=O)NC(=O)c2ccc3c(c2)N(C[C@@H]2CC[C@@H]12)C[C@@]1(CCCc2cc(Cl)ccc21)CO3` (single isomer, unassigned) [Example 877]: the IC50 stood at 26.2 nM.

With `O=C1NS(=O)(=O)CCCCC(O)CC2CCC2CN2CC3(CCCc4cc(Cl)ccc43)COc3ccc1cc32` (single isomer, unassigned) [Example 881, (1S,3′R,6′S,8′S)-6-chloro-8′-hydroxy-3,4-dihydro-2H,15′H-spiro[naphthalene-1,22′-[20]oxa[13]thia[1,14]diazatetracyclo[14.7.2.0^3,6.0^19,24]pentacosa[16,18,24]trien]-15′-one 13′,13′-dioxide or (1S,3′R,6′S,8′R)-6-chloro-8′-hydroxy-3,4-dihydro-2H,15′H-spiro[naphthalene-1,22′-[20]oxa[13]thia[1,14]diazatetracyclo[14.7.2.0^3,6.0^19,24]pentacosa[16,18,24]trien]-15′-one 13′,13′-dioxide], the IC50 worked out at 22.2 nM.

As for `O=C1NS(=O)(=O)CC/C=C\[C@@H](O)C[C@@H]2CC[C@H]2CN2C[C@@]3(CCCc4cc(Cl)ccc43)COc3ccc1cc32` (single isomer, unassigned) [Example 883, (1S,3′R,6′S,8′S,9′Z)-6-chloro-8′-hydroxy-3,4-dihydro-2H,15′H-spiro[naphthalene-1,22′[20]oxa[13]thia[1,14]diazatetracyclo[14.7.2.0^3,6.0^19,24]pentacosa[9,16,18,24]tetraen]-15′-one 13′,13′-dioxide or (1S,3′R,6′S,8′R,9′Z)-6-chloro-8′-hydroxy-3,4-dihydro-2H,15′H-spiro[naphthalene-1,22′-[20]oxa[13]thia[1,14]diazatetracyclo[14.7.2.0^3,6.0^19,24]pentacosa [9,16,18,24]tetraen]-15′-one 13′,13′-dioxide], the IC50 was found to be 48.5 nM.

In the case of `O=C1NS(=O)(=O)CC/C=C/[C@H](O)C[C@@H]2CC[C@H]2CN2C[C@@]3(CCCc4cc(Cl)ccc43)COc3ccc1cc32` (single isomer, unassigned) [Example 884, (1S,3′R,6′S,8′R,9′E)-6-chloro-8′-hydroxy-3,4-dihydro-2H,15′H-spiro[naphthalene-1,22′-[20]oxa[13]thia[1,14]diazatetracyclo[14.7.2.0^3,6.0^19,24]pentacosa [9,16,18,24]tetraen]-15′-one 13′,13′-dioxide or (1S,3′R,6′S,8′S,9′E)-6-chloro-8′-hydroxy-3,4-dihydro-2H,15′H-spiro[naphthalene-1,22′-[20]oxa[13]thia[1,14]diazatetracyclo[14.7.2.0^3,6.0^19,24]pentacosa [9,16,18,24]tetraen]-15′-one 13′,13′-dioxide], the IC50 worked out at 1.29 nM.

Consider `O=C1NS(=O)(=O)CCCCC[C@@H](CO)[C@@H]2CC[C@H]2CN2C[C@@]3(CCCc4cc(Cl)ccc43)COc3ccc1cc32` (single isomer, unassigned) [Example 898, (1S,3′R,6′R,7′R)-6-chloro-7′-(hydroxymethyl)-3,4-dihydro-2H,15′H-spiro[naphthalene-1,22′-[20]oxa[13]thia[1,14]diazatetracyclo[14.7.2.0^3,6.0^19,24]pentacosa [16,18,24]trien]-15′-one 13′,13′-dioxide or (1S,3′R,6′R,7′S)-6-chloro-7′-(hydroxymethyl)-3,4-dihydro-2H,15′H-spiro[naphthalene-1,22′[20]oxa[13]thia[1,14]diazatetracyclo[14.7.2.0^3,6.0^19,24]pentacosa[16,18,24]trien]-15′-one 13′,13′-dioxide], for which the IC50 stood at 4.03 nM.

With `O=C1NS(=O)(=O)CCC[C@]2(O)CCO[C@H](C2)[C@@H]2CC[C@H]2CN2C[C@@]3(CCCc4cc(Cl)ccc43)COc3ccc1cc32` (single isomer, unassigned) [Example 900], the half-inhibitory concentration (IC50) came out at 4.33 nM.

Regarding `O=C1NS(=O)(=O)CCCCC[C@@H](CO)[C@@H]2CC[C@H]2CN2C[C@@]3(CCCc4cc(Cl)ccc43)COc3ccc1cc32` (single isomer, unassigned) [Example 906, (1S,3′R,6′R,7′R)-6-chloro-7′-(hydroxymethyl)-3,4-dihydro-2H,15′H-spiro[naphthalene-1,22′-[20]oxa[13]thia[1,14]diazatetracyclo[14.7.2.0^3,6.0^19,24]pentacosa [16,18,24]trien]-15′-one 13′,13′-dioxide or (1S,3′R,6′R,7′)-6-chloro-7′-(hydroxymethyl)-3,4-dihydro-2H,15′H-spiro[naphthalene-1,22′-[20]oxa[13]thia[1,14]diazatetracyclo[14.7.2.0^3,6.0^19,24]pentacosa [16,18,24]trien]-15′-one 13′,13′-dioxide], the IC50 came to 9.03 nM.

Turning to `C[C@@H]1CCCCCS(=O)(=O)NC(=O)c2ccc3c(c2)N(C[C@@H]2CC[C@H]21)C[C@@]1(CCCc2cc(Cl)ccc21)CO3` (single isomer, unassigned) [Example 907, (1S,3′R,6′S, 7′R)-6-chloro-7′-methyl-3,4-dihydro-2H,15′H-spiro[naphthalene-1,22′-[20]oxa[13]thia[1,14]diazatetracyclo[14.7.2.0^3,6.0^19,24]pentacosa [16,18,24]trien]-15′-one 13′,13′-dioxide or (1S,3′R,6′S, 7′S)-6-chloro-7′-methyl-3,4-dihydro-2H,15′H-spiro[naphthalene-1,22′-[20]oxa[13]thia[1,14]diazatetracyclo[14.7.2.0^3,6.0^19,24]pentacosa [16,18,24]trien]-15′-one 13′,13′-dioxide], the IC50 is 18.9 nM.

As to `O=C1NS(=O)(=O)CCCC2(O)CCOC(C2)C2CCC2CN2CC3(CCCc4cc(Cl)ccc43)COc3ccc1cc32` (single isomer, unassigned) [Example 910], the IC50 was determined as 5.8 nM.

Consider `O=C1NS(=O)(=O)C/C=C/C[C@@H](O)C[C@@H]2CC[C@H]2CN2C[C@@]3(CCCc4cc(Cl)ccc43)COc3ccc1cc32` (single isomer, unassigned) [Example 912], for which the IC50 was found to be 7.78 nM.

Turning to `O=C1NS(=O)(=O)CC=CCC(O)CC2CCC2CN2CC3(CCCc4cc(Cl)ccc43)COc3ccc1cc32` (single isomer, unassigned) [Example 913], the IC50 was 6.1 nM.

With `O=C1NS(=O)(=O)C/C=C\C[C@@H](O)C[C@@H]2CC[C@H]2CN2C[C@@]3(CCCc4cc(Cl)ccc43)COc3ccc1cc32` (single isomer, unassigned) [Example 914], the IC50 is 1.87 nM.
